Source: patent US8697653B2, “Microparticle formulation for pulmonary drug delivery of anti infective molecule for treatment of infectious diseases” (priority 2010, dated 2014)
Values belong to the compound of their own block, whether it stands above or below them.

Experiments:
[1] = Estimation of solubility in simulated lung fluid (SLF, pH 7.4) by HPLC; assay type: physicochemical; settings: fassgf or other biorelevant, thermodynamic from solid
Description: SLF was prepared by method based on Respiratory Physiology & Neurobiology, 2008, 162, 73-79. 9 g of sodium chloride, 0.220 g of calcium chloride and 6.5 g of lactose were dissolved in 1000 mL of water. The pH of the resultant solution was adjusted to 7.4. Solubility of compound of formula I in SLF was measured at two temperatures, 45° C. and 60° C. For this, 1 mg of compound of formula I was added to 3 mL of SLF (in duplicates) and after vortexing for few seconds was incubated in water bath set at the required temperatures. Solubility was measured at one hour intervals for three hours. The solution was filtered through 0.22 μm filter and the filtrate was injected on HPLC. Solubility was calculated with respect to appropriate calibration curve.

[2] = Physical properties: solubility in solvents and water; assay type: physicochemical; settings: chloroform, ethyl acetate, methanol, water
Description: • Column: Eurospher RP-18, (3μ, 4.6×125 mm) • Solvent system: Gradient (0% acetonitrile to 100% in 15 minutes against water, followed by 100% acetonitrile for 5 minutes) • Flow rate: 1 mL/minute • Detection (UV): 245 nm • Retention time: compound of formula I (12 to 13 minutes) Physical & Spectral properties of the compound of formula I: • Appearance: White powder • Melting point: 240° C.

[3] = test system: MRC5, L929 and A549 cell lines; assay: In vitro cytocompatibility assay, all cell lines evaluated; assay type: cell-based; settings: all the different cell lines evaluated
Description: The assay was carried out based on the reference Journal of Biomedical Materials Research, 2009, […], 281-292. This assay was performed to evaluate the cytocompatibility of the formulation of Example 9 Method A with the relevant cell lines and standard cells which are specified by the regulatory agencies. Cell density: 10,000/well for MRC 5 and […], and 3000/well for A549 Time points: 24 hours and 48 hours. The toxicological evaluation was done using The CellTiter 96 Aqueous One Solution Assay by Promega (Cat. no: G3582). The assay is a standard colorimetric method for determining the number of viable cells in proliferation or cytotoxicity assays. The MTS used in the assay is bioreduced by cells into a colored formazan product that is soluble in tissue culture medium. The quantity of formazan product as measured by the amount of 490 nm absorbance is directly proportional to the number of living cells in culture. […] The ELISA 96-well plate was then subjected to absorbance recordings at 490 nm (450-540 nm) with a 96-well plate reader. The average 490 nm absorbance from the “no-cell” control was subtracted from all other absorbance values and the corrected absorbance was utilized for further calculations. (Background absorbance from “no-cell” control is typically 0.2 to 0.3 absorbance units after 4 hours of incubation).

rat alveolar macrophages = assay: In vitro macrophage uptake assay; assay type: cell-based
Description: The assay was carried out based on the reference Respiratory Research, 2009, 10, 44.
Bronchoalveolar lavage washings from the rats were taken after appropriate ethical permission. Sterile warmed saline was introduced into the lung and then removed by suction. Bronchoalveolar lavage fluid was transported on icepacks (usually 100 to 200 mL of bronchoalveolar lavage fluid per donor is desired). The fluid was subjected to centrifugation at 250 g for 10 minutes and the cells were collected. Pooled the cell pellets by resuspending the cells in a total of 10 mL of HBSS. 100 μL aliquot was removed and stained with Wright-Giemsa stain to do a differential cell count. The cell count was adjusted and plated the cells in macrophage culture medium (HAM F12 medium, Amimed, Switzerland). 0.5 mL of the cell suspension was added to each of the 6 well tissue culture plates with 0.5 mL of the macrophage culture medium. The cells were incubated for 24 hours at 37° C. and 5% CO2. Cell adherence and cell growth was evaluated and treated with the formulation of Example 9 Method A tagged with sulforhodamine dye. Post treatment the cells were evaluated for fluorescence. This fluorescence results for selective uptake of the formulation by the alveolar macrophages.

[4] = Pilot in vivo lung deposition study (Example 20); parameters: species or system Guinea pigs; settings: guinea pig, lungs, 10 mg/kg aerosolized, passive breathing, read-out: compound of formula I deposited
Description: (§1) The assay was done as reported in The AAPS Journal, 2005, 7 (1), E20-E41.
A pilot in vivo lung deposition study was carried out as per the reference mentioned. Guinea pigs were divided in three groups. Group 1 received formulation of Example 9 Method A, group 2 received unformulated compound of formula I and group 3 was untreated (naïve group). 10 mg/kg of the formulation was aerosolized and the animals were allowed to breathe passively. Following administration of the formulation of Example 9 Method A the animals were sacrificed at 30 minutes time point. The lungs were collected and analyzed by HPLC.

[5] = Pulmonary bioavailability, nose-only exposure lung deposition (Example 21); assay type: in vivo, Guinea pigs; settings: 3 mg/kg
Description: as §1
(§2) A nose-only exposure in vivo lung deposition study was carried out as per the reference mentioned. Guinea pigs were divided in two groups. Group 1 received unformulated compound of formula I (3 mg/kg) and group 2 received formulation of Example 9 Method A (3 mg/kg). The unformulated compound of formula I and formulation of Example 9 Method A were aerosolized and the nose-only exposure was carried out using jet nebulizer wherein the nebulization period was one hour. Following aerosol administration, the animals were sacrificed at 1 hour, 2 hours, 6 hours, 12 hours and 24 hours post aerosol exposure and the lungs were collected and analyzed to quantitate the amount of compound of formula I (ng/g) deposited in the lung by LC-MS.

[6] = Cumulative accumulation after once a day dosing for 5 days (Example 22); parameters: species or system Guinea pigs; settings: guinea pig, in vivo; lung, 3 mg/kg, 1 hour nebulization everyday for five consecutive days, sacrificed on 6th day; read-out: Compound of formula I deposited
Description: Evaluation of cumulative accumulation of formulation of Example 9 Method A after once a day dosing for 5 days for nebulization exposure period of 1 hour/day The assay was done as reported in The AAPS Journal, 2005, 7 (1), E20-E41.
as §2, with “hour everyday for five consecutive days and” for “hour. Following aerosol administration,”, “on 6th day. The” for “at 1 hour, 2 hours, 6 hours, 12 hours and 24 hours post aerosol exposure and the”, “LC-MS. LC-MS conditions are as provided in Tables 15, 16 and 17 of Example 21.” for “LC-MS.”

[7] = Dose scheduling, nose-only exposure lung deposition (Example 23); assay type: in vivo, Guinea pigs; settings: 3 mg/kg, regimen not stated
Description: To evaluate dose scheduling of the formulation of Example 9 Method A The assay was done as reported in The AAPS Journal, 2005, 7 (1), E20-E41.
A nose-only exposure in vivo lung deposition study was carried out as per the reference mentioned. Guinea pigs were divided in three groups. Group 1 received unformulated compound of formula I (3 mg/kg); group 2 received formulation of Example 9 Method A (3 mg/kg) once a day for one day and group 3 received formulation of Example 9 Method A (3 mg/kg) twice a day for one day. The unformulated compound of formula I and formulation of Example 9 Method A were aerosolized and the nose-only exposure was carried out using jet nebulizer. The animals were sacrificed and the lungs were collected and analyzed to quantitate the amount of compound of formula I (ng/g) deposited in the lung by LC-MS. LC-MS conditions are as provided in Tables 15, 16 and 17 of Example 21.

[8] = Antimicrob. Agents Chemother., 1999, 37, 281-286; cited from earlier work

- solubility at 1 h ([1]; SLF pH 7.4, 45° C.): 1.3 µg/mL
- solubility at 2 h ([1]; SLF pH 7.4, 45° C.): 0.9 µg/mL
- solubility at 3 h ([1]; SLF pH 7.4, 45° C.): 1.2 µg/mL
- solubility at 1 h ([1]; SLF pH 7.4, 60° C.): 0.6 µg/mL
- solubility at 2 h ([1]; SLF pH 7.4, 60° C.): 0.7 µg/mL
- solubility at 3 h ([1]; SLF pH 7.4, 60° C.): 1.3 µg/mL
- Uptake by alveolar macrophages (in words) (rat alveolar macrophages): does not show active uptake
- Compound concentration in alveolar macrophages (rat alveolar macrophages; 30 minutes): 2.01 µg/mL
- Compound concentration in alveolar macrophages (rat alveolar macrophages; 60 minutes): 2.01 µg/mL
- Compound concentration in alveolar macrophages (rat alveolar macrophages; 120 minutes): 1.99 µg/mL
- concentration at 30 min [4]: 0 ng/g
- Ability to reach the lungs on nebulization (in words) ([5]; nose-only nebulization): unable to reach the lungs
- concentration at 1 h ([5]; guinea pig, in vivo, lung, nose-only, 1 hour nebulization, 1 hour post exposure, read-out: Compound of formula I deposited): 1 ng/g
- concentration at 2 h ([5]; guinea pig, in vivo, lung, nose-only, 1 hour nebulization, 2 hours post exposure, read-out: Compound of formula I deposited): 1 ng/g
- concentration at 6 h ([5]; guinea pig, in vivo, lung, nose-only, 1 hour nebulization, 6 hours post exposure, read-out: Compound of formula I deposited): 1 ng/g
- concentration at 12 h ([5]; guinea pig, in vivo, lung, nose-only, 1 hour nebulization, 12 hours post exposure, read-out: Compound of formula I deposited): 1 ng/g
- concentration at 24 h ([5]; guinea pig, in vivo, lung, nose-only, 1 hour nebulization, 24 hours post exposure, read-out: Compound of formula I deposited): 1 ng/g
- concentration at 6 day [6]: 1 ng/g
- Compound of formula I deposited [7]: 0 ng/g
SMILES: C=C(NC(=O)C(=C)NC(=O)c1csc(C2=NC3c4csc(n4)C4NC(=O)c5csc(n5)C(C(C)(O)C(C)O)NC(=O)C5CSC(=N5)/C(=C\C)NC(=O)C(C(C)O)NC(=O)c5csc(n5)C3(CC2)NC(=O)C(C)NC(=O)C(=C)NC(=O)C(C)NC(=O)C(C(C)C)NC2C=Cc3c(C(C)O)cc(nc3C2O)C(=O)OC4C)n1)C(N)=O (stereo not shown) [Compound of formula I]
- Solubility (in words) [2]: Soluble in chloroform, ethyl acetate, methanol and insoluble in water
- Cytotoxicity (in words) [3]: exhibited cytotoxicity

SMILES: CN[C@H](CC(C)C)C(=O)N[C@H]1C(=O)N[C@@H](CC(N)=O)C(=O)N[C@H]2C(=O)N[C@H]3C(=O)N[C@H](C(=O)N[C@H](C(=O)O)c4cc(O)cc(O)c4-c4cc3ccc4O)[C@H](O)c3ccc(c(Cl)c3)Oc3cc2cc(c3O[C@@H]2O[C@H](CO)[C@@H](O)[C@H](O)[C@H]2O[C@H]2C[C@](C)(N)[C@H](O)[C@H](C)O2)Oc2ccc(cc2Cl)[C@H]1O [Vancomycin]
- Lung concentrations as % of the plasma concentrations [8]: 20%
